By EC50 is commonly meant the concentration that produces a half-maximal response. Broadly, the CC50 is the concentration that lowers cell viability or growth by half. A lower CC50 goes with harm at low concentration.

A value given as a limit tells only on which side of the number the result lay.

Assay type in all cases: cell-based
One data set concerns Mouse Cytomegalovirus. The data set is described as follows: CPE inhibition in stationary cells (visual), MCMV in MEF cells. Conditions: test compounds in DMSO.
The subject of data set [1] is Human laryngeal epithelial carcinoma cells (HEp-2). The data set is described as follows: Cytotoxicity in HEp-2 cells.
The subject of the next data set is Varicella-Zoster Virus. The data set can be described thus: CPE inhibition in stationary cells (visual), VZV in HFF cells. Conditions: test compounds in DMSO.
The next data set has as its system Daudi cells. The data set is described as follows: CC50 in Daudi cells (Table 3). The following applies: Daudi cells, Epstein-Barr Virus section of Table 3.

Protocol for Daudi cells: Raji is a Burkitt's lymphoma cell line containing 60 EBV genome/cell, and was the primary cell used for screening antiviral activity against EBV early antigen (EA) expression. Daudi is a low level producer that contains 152 EBV genome copies/cell. It spontaneously expresses EBV EA in 0.25-0.5% of the cells. It was used in follow-up studies to confirm activity. […] All cell lines were maintained in RPMI-1640 medium supplemented with 10% FCS, L-glutamine and 100 μg/ml gentamicin. The cultures were fed twice weekly and the cell concentration was adjusted to 3×10^5/ml. The cells were kept at 37° C. in humidified atmosphere with 5% CO2.

As to `C=C(C)[C@@H]1CC[C@]2(CO)CC[C@]3(C)[C@H](CC[C@@H]4[C@@]5(C)CC[C@H](O)C(C)(C)[C@@H]5CC[C@]43C)[C@@H]12` [Betulin, lup-20(29)-ene-3β, 28-diol, reference compound], the EC50 with Mouse Cytomegalovirus was more than 0.02 µg/mL; with Varicella-Zoster Virus it was more than 0.004 µg/mL. Besides, in data set [1] (HEp-2 (human epithelial) cells), the “cytotoxicity (in words)” value is recorded as “less cytotoxicity”. Moreover, in data set [1] (HEp-2 cells, conc. per compound (ng/ml)), the “Cell Cytotoxicity” value is recorded as “−”.
Turning to “acycloguanosine [Acyclovir, reference compound]”, the CC50 in the data set on Daudi cells is more than 100 µg/mL.

Values taken from patent US6369101B1, “Therapeutic method to treat herpes virus infection” (Regents of the University of Minnesota, priority 1999, dated 2002).
